In ChEMBL document CHEMBL1201862, “PubChem BioAssay data set” (2004):
Several values for one entry are separate records, joined by “and”; a condition that tells them apart may be missing. Equal values may be shown once.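 Step 1: Grow cells in 96-well plates. Step 2: Expose to compound for 48 hours at 5 concentrations. Step 3: Interpolate endpoints linearly; if unreached, use highest concentration. GI50: concentration for 50% inhibition of growth.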 Activity calls are given as the source filed them. Cut-off read from the data, not from the text of the source: active = GI50 up to about 1.1 µM and inactive = higher.

Columns and labels:
Experiment in all cases: NCI-60 cell line screen, 48 h
Hs-578T = tested on: Hs-578T
HCC 2998 = tested on: HCC 2998
TK-10 = tested on: TK-10
UACC-257 = tested on: UACC-257
IGROV-1 = tested on: IGROV-1
ACHN = tested on: ACHN
MDA-MB-231 = tested on: MDA-MB-231
NCI-H460 = tested on: NCI-H460
K562 = tested on: K562
M14 = tested on: M14
U-251 = tested on: U-251
KM12 = tested on: KM12
PC-3 = tested on: PC-3
HT-29 = tested on: HT-29
A549 = tested on: A549
MOLT-4 = tested on: MOLT-4
MDA-MB-435 = tested on: MDA-MB-435
UACC-62 = tested on: UACC-62
EKVX = tested on: EKVX
CAKI-1 = tested on: CAKI-1

COc1ccc2cc1Oc1ccc(cc1)C[C@H]1c3cc(c(OC)cc3CCN1C)Oc1c(OC)c(OC)cc3c1[C@H](C2)N(C)CC3 [FANCHININ]
GI50 (Hs-578T): 8.63 µM (inactive) and 30.1 µM (inactive)
GI50 (HCC 2998): 1.71 µM (inactive)
GI50 (TK-10): 22.9 µM (inactive) and 8.41 µM (inactive)
GI50 (UACC-257): 43.1 µM (inactive) and 5.79 µM (inactive)
GI50 (IGROV-1): 9.2 µM (inactive) and 49.2 µM (inactive)
GI50 (ACHN): 7.93 µM (inactive) and 17.1 µM (inactive)
GI50 (MDA-MB-231): 5.64 µM (inactive) and 19.8 µM (inactive)
GI50 (NCI-H460): 6.71 µM (inactive)
GI50 (K562): 41.2 µM (inactive) and 1.57 µM (inactive)
GI50 (M14): 26.2 µM (inactive) and 260 nM (active)
GI50 (U-251): 35.7 µM (inactive) and 7.66 µM (inactive)

CCn1c(-c2ccccc2)nc2c1C(=O)c1ccccc1C2=O
GI50 (KM12): 22.7 µM (inactive)
GI50 (Hs-578T): 27.2 µM (inactive)
GI50 (PC-3): 10.2 µM (inactive)
GI50 (HT-29): 8.99 µM (inactive)
GI50 (HCC 2998): 18.2 µM (inactive)
GI50 (TK-10): 36.2 µM (inactive)
GI50 (UACC-257): 3.85 µM (inactive)
GI50 (A549): 28.4 µM (inactive)
GI50 (IGROV-1): 19.3 µM (inactive)
GI50 (MOLT-4): 14.7 µM (inactive)
GI50 (MDA-MB-435): 15.9 µM (inactive)
GI50 (NCI-H460): 20 µM (inactive)
GI50 (K562): 25.9 µM (inactive)
GI50 (UACC-62): 15.8 µM (inactive)
GI50 (M14): 15.4 µM (inactive)
GI50 (U-251): 29.9 µM (inactive)

COc1ccc(C2Oc3c(cccc3-c3c(-c4ccc(O)cc4)oc4cc(O)cc(O)c4c3=O)C(=O)C2O)cc1O (configuration not stated)
GI50 (PC-3): > 100 µM (inactive)
GI50 (HT-29): > 100 µM (inactive)
GI50 (HCC 2998): > 100 µM (inactive)
GI50 (TK-10): > 100 µM (inactive)
GI50 (UACC-257): > 100 µM (inactive)
GI50 (A549): > 100 µM (inactive)
GI50 (IGROV-1): > 100 µM (inactive)
GI50 (ACHN): > 100 µM (inactive)
GI50 (MDA-MB-231): > 100 µM (inactive)
GI50 (MOLT-4): > 100 µM (inactive)
GI50 (MDA-MB-435): > 100 µM (inactive)
GI50 (EKVX): > 100 µM (inactive)
GI50 (NCI-H460): > 100 µM (inactive)
GI50 (K562): > 100 µM (inactive)
GI50 (UACC-62): > 100 µM (inactive)
GI50 (M14): > 100 µM (inactive)
GI50 (U-251): > 100 µM (inactive)

O=C(O)C[C@@H]1[C@@H](O)[C@@H](O)CN2C(=O)c3ccccc3[C@H]12
GI50 (KM12): > 100 µM (inactive)
GI50 (PC-3): > 100 µM (inactive)
GI50 (HT-29): > 100 µM (inactive)
GI50 (HCC 2998): > 100 µM (inactive)
GI50 (TK-10): > 100 µM (inactive)
GI50 (UACC-257): > 100 µM (inactive)
GI50 (A549): > 100 µM (inactive)
GI50 (IGROV-1): > 100 µM (inactive)
GI50 (ACHN): > 100 µM (inactive)
GI50 (MDA-MB-231): > 100 µM (inactive)
GI50 (MOLT-4): > 100 µM (inactive)
GI50 (MDA-MB-435): > 100 µM (inactive)
GI50 (EKVX): > 100 µM (inactive)
GI50 (NCI-H460): > 100 µM (inactive)
GI50 (CAKI-1): > 100 µM (inactive)
GI50 (K562): > 100 µM (inactive)
GI50 (UACC-62): > 100 µM (inactive)
GI50 (M14): > 100 µM (inactive)
GI50 (U-251): > 100 µM (inactive)

C[C@]12CC[C@H](O)CC1=CC[C@@H]1[C@@H]2CC[C@]2(C)C(=N/O)/C(=C/c3ccc([N+](=O)[O-])cc3)C[C@@H]12
GI50 (KM12): 0.841 µM (active)
GI50 (Hs-578T): 12.1 µM (inactive)
GI50 (PC-3): 3.22 µM (inactive)
GI50 (HT-29): 6.15 µM (inactive)
GI50 (HCC 2998): 2.37 µM (inactive)
GI50 (UACC-257): 3.65 µM (inactive)
GI50 (A549): 0.782 µM (active)
GI50 (IGROV-1): 7.48 µM (inactive)
GI50 (ACHN): 4.13 µM (inactive)
GI50 (MOLT-4): 3.66 µM (inactive)
GI50 (MDA-MB-435): 8.38 µM (inactive)
GI50 (EKVX): 2.59 µM (inactive)
GI50 (NCI-H460): 0.519 µM (active)
GI50 (CAKI-1): 7.05 µM (inactive)
GI50 (K562): 3.3 µM (inactive)
GI50 (UACC-62): 10.9 µM (inactive)
GI50 (M14): 6.75 µM (inactive)

CN(C)c1nc2oc(-c3ccccc3)c(-c3ccccc3)c2c2nnnn12
GI50 (KM12): > 100 µM (inactive)
GI50 (Hs-578T): > 100 µM (inactive)
GI50 (HT-29): > 100 µM (inactive)
GI50 (HCC 2998): > 100 µM (inactive)
GI50 (TK-10): > 100 µM (inactive)
GI50 (UACC-257): > 100 µM (inactive)
GI50 (A549): > 100 µM (inactive)
GI50 (IGROV-1): > 100 µM (inactive)
GI50 (ACHN): > 100 µM (inactive)
GI50 (MDA-MB-231): > 100 µM (inactive)
GI50 (MOLT-4): > 100 µM (inactive)
GI50 (MDA-MB-435): > 100 µM (inactive)
GI50 (EKVX): > 100 µM (inactive)
GI50 (CAKI-1): > 100 µM (inactive)
GI50 (K562): > 100 µM (inactive)
GI50 (UACC-62): > 100 µM (inactive)
GI50 (M14): > 100 µM (inactive)
GI50 (U-251): > 100 µM (inactive)

O=C(O)Cc1ccc(-n2nnc3c(=O)[nH][nH]c(=O)c32)cc1
GI50 (KM12): > 100 µM (inactive)
GI50 (PC-3): > 100 µM (inactive)
GI50 (HT-29): > 100 µM (inactive)
GI50 (HCC 2998): > 100 µM (inactive)
GI50 (TK-10): > 100 µM (inactive)
GI50 (UACC-257): > 100 µM (inactive)
GI50 (A549): > 100 µM (inactive)
GI50 (ACHN): > 100 µM (inactive)
GI50 (MDA-MB-231): > 100 µM (inactive)
GI50 (MOLT-4): > 100 µM (inactive)
GI50 (MDA-MB-435): > 100 µM (inactive)
GI50 (EKVX): > 100 µM (inactive)
GI50 (NCI-H460): > 100 µM (inactive)
GI50 (CAKI-1): > 100 µM (inactive)
GI50 (K562): > 100 µM (inactive)
GI50 (M14): > 100 µM (inactive)
GI50 (U-251): > 100 µM (inactive)

Nc1nc(O)c2nc(CNc3ccc(C(=O)NC(CCC(=O)O)C(=O)O)cc3)cnc2n1 (configuration not stated)
GI50 (KM12): > 100 µM (inactive)
GI50 (Hs-578T): > 100 µM (inactive)
GI50 (PC-3): > 100 µM (inactive)
GI50 (HT-29): > 100 µM (inactive)
GI50 (HCC 2998): > 100 µM (inactive)
GI50 (TK-10): > 100 µM (inactive)
GI50 (UACC-257): > 100 µM (inactive)
GI50 (A549): > 100 µM (inactive)
GI50 (IGROV-1): > 100 µM (inactive)
GI50 (ACHN): > 100 µM (inactive)
GI50 (MOLT-4): > 100 µM (inactive)
GI50 (MDA-MB-435): > 100 µM (inactive)
GI50 (EKVX): > 100 µM (inactive)
GI50 (NCI-H460): > 100 µM (inactive)
GI50 (K562): > 100 µM (inactive)
GI50 (UACC-62): > 100 µM (inactive)
GI50 (M14): > 100 µM (inactive)
GI50 (U-251): > 100 µM (inactive)

OCCCCCCOc1ccc(-c2cc(-c3ccccn3)nc(-c3ccccn3)c2)cc1
GI50 (KM12): 0.388 µM (active)
GI50 (Hs-578T): 0.419 µM (active)
GI50 (PC-3): 0.034 µM (active)
GI50 (HT-29): 0.228 µM (active)
GI50 (HCC 2998): 0.187 µM (active)
GI50 (TK-10): 0.357 µM (active)
GI50 (UACC-257): 0.397 µM (active)
GI50 (A549): 0.23 µM (active)
GI50 (IGROV-1): 0.205 µM (active)
GI50 (ACHN): 0.108 µM (active)
GI50 (MOLT-4): 0.0274 µM (active)
GI50 (MDA-MB-435): 0.462 µM (active)
GI50 (EKVX): 0.18 µM (active)
GI50 (NCI-H460): 0.104 µM (active)
GI50 (CAKI-1): 0.256 µM (active)
GI50 (K562): 0.0728 µM (active)
GI50 (UACC-62): 0.149 µM (active)
GI50 (M14): 0.202 µM (active)
GI50 (U-251): 0.0877 µM (active)

O=c1[nH]ccc(CNC23CC4CC(CC(C4)C2)C3)c1O
GI50 (KM12): > 100 µM (inactive)
GI50 (HT-29): > 100 µM (inactive)
GI50 (HCC 2998): > 100 µM (inactive)
GI50 (TK-10): > 100 µM (inactive)
GI50 (UACC-257): > 100 µM (inactive)
GI50 (A549): > 100 µM (inactive)
GI50 (IGROV-1): > 100 µM (inactive)
GI50 (ACHN): 93.5 µM (inactive)
GI50 (MOLT-4): 55.7 µM (inactive)
GI50 (EKVX): 80.4 µM (inactive)
GI50 (NCI-H460): 79.3 µM (inactive)
GI50 (CAKI-1): 59.7 µM (inactive)
GI50 (K562): 88.3 µM (inactive)
GI50 (UACC-62): > 100 µM (inactive)
GI50 (M14): > 100 µM (inactive)
GI50 (U-251): > 100 µM (inactive)

CCc1nc(N)nc(N)c1-c1ccc(Cl)c(N=[N+]=[N-])c1
GI50 (KM12): 8.63 µM (inactive)
GI50 (Hs-578T): 27.4 µM (inactive)
GI50 (HCC 2998): 8.22 µM (inactive)
GI50 (MDA-MB-231): 14.8 µM (inactive)
GI50 (MDA-MB-435): 4.57 µM (inactive)
GI50 (EKVX): 5.21 µM (inactive)
GI50 (K562): 0.531 µM (active)
GI50 (U-251): 5.38 µM (inactive)

COc1ccc(Br)c(N/N=C2\CCCNC2=O)c1
GI50 (KM12): > 100 µM (inactive)
GI50 (HT-29): > 100 µM (inactive)
GI50 (HCC 2998): > 100 µM (inactive)
GI50 (TK-10): 57 µM (inactive)
GI50 (UACC-257): > 100 µM (inactive)
GI50 (A549): > 100 µM (inactive)
GI50 (IGROV-1): 96.4 µM (inactive)
GI50 (ACHN): 40.4 µM (inactive)
GI50 (MOLT-4): 69 µM (inactive)
GI50 (EKVX): 22.6 µM (inactive)
GI50 (NCI-H460): > 100 µM (inactive)
GI50 (CAKI-1): 36.3 µM (inactive)
GI50 (K562): > 100 µM (inactive)
GI50 (UACC-62): > 100 µM (inactive)
GI50 (M14): > 100 µM (inactive)
GI50 (U-251): 86.3 µM (inactive)
